Measured values reported in patent US4022842A, “Bibenzyl compounds” (Rikagaku Kenkyusho, priority 1972, dated 1977).
Converted amounts (≈) assume the structure as drawn.

Legend:
bulbils of yam [1] = assay: Sprouting of yam bulbils in dark or light (Example 7, Table 4); assay type: in vivo, Discorea batatas Decne.; conditions: 23° C., 20 days
Experimental: 4-Hydroxy-2,6,7-trimethoxyphenanthrene and 3,3'-dihydroxy-5-methoxybibenzylwere respectively dissolved at various concentrations in water containing 0.05% of Tween 20, and 30 ml each of the resulting solutions were poured into culture dishes of 9 cm in diameter containing 1 g of absorbent cotton.
Thirty bulbils of yam (Discorea batatas Decne.) which had been awakened from dormancy were planted in each of the so arranged culture dishes, and the germination test was carried out at 23° C. either in the dark or in the light. […]

seeds of a lettuce = assay: Germination ratio of lettuce seeds (Example 8, Table 5); assay type: in vivo, Lactuca sativa L.; conditions: for Germination Ratio: 23° C., 2 days, untreated control 90
Experimental: 4-Hydroxy-2,6,7-trimethoxyphenanthrene and 3,3'-dihydroxy-5-methoxybibenzylwere respectively dissolved in water containing 0.05% of Tween 20 and 1% of dimethylformamide, and each of the resulting solution was poured into a culture dish, 6 cm in diameter, in which 2 layers of filter paper were spread to form a germination bed. 100 seeds of a lettuce (Lactuca sativa L.) were sown on the germination bed and cultivation was conducted for 2 days at 23° C. […] [formula]

oats coleoptile = assay: Growth inhibition in oats coleoptile sections (Example 4, Table 1); design: species or system Avena sativa L.; conditions: Avena sativa; 5 mm sections, 25° C., 20 hours, dark; read-out: Growth Inhibition in oats coleoptile (concentration giving 50% inhibition)
Experimental: A compound illustrated in Table 1 was dissolved in dimethylformamide and the solution was diluted to desired concentrations with water containing 2% of sucrose. In control test dimethylformamide was applied in the same amount as that of treated groups. This solvent gives no phytotoxicity to plants to be tested if the content in water is 1% or less. The prepared liquors were poured into culture dishes of 3 cm diameter, the amount of the medium poured into one dish being 2 ml. Sections of 5 mm in length cut from a coleoptiles of oats (Avena sativa L.) which have been grown in the dark were floated on the test media in the culture dishes and cultured at 25° C. for 20 hours in the dark to determine the growth-inhibition degrees.
In the control group, the coleoptile elongated by about 5 mm during the experiment.

Bulbils of yam [2] = assay: Germination (sprouting) of yam bulbils awakened from dormancy (Example 6, Table 3); assay type: in vivo, Dioscorea batatas Decne.; conditions: 300 μg/ml; 23° C., light of 1800 luxes, 2 weeks; untreated control 80
Experimental: Bulbils (fleshy buds for breeding formed on stems) of yam (Dioscorea batatas Decne.) were stored at a low temperature of 5° C. for 3 months and awakened from hibernation. These fleshy buds were treated with the agricultural chemical of this invention in the following manner to lead them to hibernation again.
Every active ingredient compound of this invention shown in the following Table 3 was dissolved emulsified in distilled water containing 1% of dimethylformamide and 0.05% of Tween 20. 25 ml of the resulting liquor was poured into a culture dish of 9 cm diameter in which absorbent cotton was spread, and 30 of bulbis which had been subjected to the above low temperature treatment and awakened from dormancy were sown on the dish and they were allowed to sprout at 23° C. under light of 1800 luxes for 2 weeks.

Seedings of lettuce = assay: Growth inhibition of lettuce seedling stems (hypocotyls) (Example 10, Table 7); assay type: in vivo, Lactuca sativa L.; conditions: Lactuca sativa, 72 h, stem (hypocotyl) length, light place, 23° C., 3 days, read-out: Growth Inhibition Ratio
Experimental: 4-Hydroxy-2,6,7-trimethoxyphenanthrene or 3,3'-dihydroxy-5-methoxybibenzyl was dissolved in acetone, and the resulting solution was placed in culture dishes in which 2 layers of filter paper were spread so as to give required amounts of the test compound. After the acetone was removed by evaporation, Hoagland's nutrient solution containing 0.05% of Tween 20 was poured into the culture dishes. Seedings of lettuce (Lactuca sativa L.), which had been germinated in a different place, were transplanted to the culture dishes and cultivation was carried out in a light place at 23° C. for 3 days. Then, the lengths of the stems (hypocotyls) were measured to determined the growth inhibition ratio.

Solubility = assay type: physicochemical
oats coleoptiles = assay: Growth inhibition of oats coleoptile pieces with indoleacetic acid (Example 9, Table 6); design: species or system Avena sativa L.; conditions: Avena sativa, 0.1 mg/l indoleacetic acid, 25° C., 18 hours, read-out: Growth Inhibition ratio
Experimental: Oats (Avena sativa L.) were allowed to germinate under a weak red light at 25° C. and 3 days after germination sections of […] in length were cut from coleoptiles about 25 mm in length. 4-Hydroxy-2,6,7-trimethoxyphenanthrene or 3,3-dihydroxy-5-methoxybibenzyl was dissolved in a culture medium comprising 0.1 mg/l of indoleacetic acid, 0.05% of Tween 20 and 2% of sucrose, the balance being water. Ten of the above cut-out coleoptile pieces were flated on the resulting culture medium and cultivation was conducted at 25° C. for 18 hours to examine the growth state and the results shown in Table 6 were obtained.

lettuce seeds = assay: Inhibition of germination of lettuce seeds, 50% inhibition (Example 5, Table 2); assay type: in vivo, Lactuca sativa L.; conditions: Lactuca sativa, 48 h; 23° C., dark, 2 days; 1% dimethylformamide; read-out: Inhibition of Germination of Lettuce Seeds, Concentration Giving 50% Inhibition
Experimental: Every compound shown in Table 1 was respectively dissolved at various concentrations in distilled water containing 1% of dimethylformamide, and 3 ml each of the resulting solutions was poured into a culture dish of 6 cm diameter in which 2 filter papers were spread. About 100 seeds (non-dormant ware head seeds) of lettuce (Lactuca sativa L.) were shown in each dish, and they were allowed to stand at 23° C. in the dark for 2 days. Germination percentages were determined and plotted against the concentrations of the compound tested. From the graphs obtained the concentration to give 50% inhibition was determined. The definition of inhibition rate is given in the following formula: [formula] Usually the germination percentage of the untreated control lot was about 95%.

COc1cc(O)cc(CCc2cccc(O)c2)c1 [Compound 8, 3,3'-dihydroxy-5-methoxybibenzyl]
Sprouting Ratio (bulbils of yam [1]; 100 mg/l, dark place, untreated control 56): 56%
Sprouting Ratio (bulbils of yam [1]; 100 mg/l, light place, untreated control 44): 23%
Sprouting Ratio (bulbils of yam [1]; 300 mg/l, dark place, untreated control 56): 22%
Sprouting Ratio (bulbils of yam [1]; 300 mg/l, light place, untreated control 44): 18%
Sprouting Ratio (bulbils of yam [1]; 1000 mg/l, dark place, untreated control 56): 14%
Germination Ratio (seeds of a lettuce; 30 mg/l): 52%
Germination Ratio (seeds of a lettuce; 100 mg/l): 26%
Germination Ratio (seeds of a lettuce; 300 mg/l): 0%
Blight of germination-inhibited seeds (seeds of a lettuce; in vivo): not blighted
Germination after washing and transplanting (seeds of a lettuce; washed with water, transplanted on culture dish free of compound): complete germination
IC50 (oats coleoptile): 100 µg/mL (≈ 409 µM)
Germination Ratio (Bulbils of yam [2]): 50%
inhibition at 30 µg/mL (Seedings of lettuce; 30 mg/l): 21%
inhibition at 100 µg/mL (Seedings of lettuce; 100 mg/l): 48%
inhibition at 300 µg/mL (Seedings of lettuce; 300 mg/l): 86%
Solubility in ordinary solvents (Solubility; ethanol, acetone, ethyl acetate and ether): Soluble
Solubility in hexane (Solubility; hexane): insoluble
Solubility in water (Solubility; water): difficultly soluble
inhibition at 30 µg/mL (oats coleoptiles; 30 mg/l): 39%
inhibition at 100 µg/mL (oats coleoptiles; 100 mg/l): 76%
inhibition at 300 µg/mL (oats coleoptiles; 300 mg/l): 84%
IC50 (lettuce seeds): 80 µg/mL (≈ 327 µM)
